The results in this text go back to patent US20080221093A1, “Metalloprotease inhibitors containing a heterocyclic moiety” (priority 2007, published 2008).

For the assay, the target named is T1, catalytic domain of MMP-13 enzyme (Homo sapiens, UniProt P45452).
T1 construct: stock solution of catalytic domain of MMP-13 enzyme; purchased Invitek (Berlin) 30100812
The experiment in a line: Assay for determining MMP-13 inhibition (fluorescent substrate). The conditions noted are these: compounds named as lower than 100 nM. It is filed as biochemical. Here is the method:
Assay for Determining MMP-13 Inhibition
The typical assay for MMP-13 activity is carried out in assay buffer comprised of 50 mM Tris, pH 7.5, 150 mM NaCl, 5 mM CaCl2 and 0.05% Brij-35. Different concentrations of tested compounds are prepared in assay buffer in 50 μL aliquots. 10 μL of a 50 nM stock solution of catalytic domain of MMP-13 enzyme (produced by Alantos or commercially available from Invitek (Berlin), Cat.# 30100812) is added to the compound solution. The mixture of enzyme and compound in assay buffer is thoroughly mixed and incubated for 10 min at room temperature. Upon the completion of incubation, the assay is started by addition of 40 μL of a 12.5 μM stock solution of MMP-13 fluorescent substrate (Calbiochem, Cat. No. 444235). The time-dependent increase in fluorescence is measured at the 320 nm excitation and 390 nm emission by automatic plate multireader. The IC50 values are calculated from the initial reaction rates.

Where only a bound is given, the exact number is not on record here.

The term IC50 denotes the concentration at which inhibition is half-maximal. Low readings indicate greater potency, high ones weaker potency. The compound `O=C1COc2ccc(CNC(=O)c3cnc4ccccc4n3)cc2N1` [3/137] came in with an IC50 of less than 100 nM.
The result for `O=C1COc2ccc(CNC(=O)C3NC(=O)c4ccccc4N3)cc2N1` (centres unmarked) [Example 1/4] reads less than 100 nM.
